Calls of active or inactive are those of the source. No cut-off for these calls is given here.
Legend:
[1] = biological target: Acetylcholinesterase (Electrophorus electricus) (UniProt O42275); assay: Inhibition of electric eel AChE using acetylthiocholine iodide as substrate at 20 uM incubated for 20 mins by Ellman's method relative to control
[2] = biological target: Cholinesterase (Equus caballus) (UniProt P81908); assay: Inhibition of equine serum BChE at 20 uM by Ellman's method relative to control; assay type: cell-free
Cholinesterase (Equus caballus), sequence (P81908 whole entry): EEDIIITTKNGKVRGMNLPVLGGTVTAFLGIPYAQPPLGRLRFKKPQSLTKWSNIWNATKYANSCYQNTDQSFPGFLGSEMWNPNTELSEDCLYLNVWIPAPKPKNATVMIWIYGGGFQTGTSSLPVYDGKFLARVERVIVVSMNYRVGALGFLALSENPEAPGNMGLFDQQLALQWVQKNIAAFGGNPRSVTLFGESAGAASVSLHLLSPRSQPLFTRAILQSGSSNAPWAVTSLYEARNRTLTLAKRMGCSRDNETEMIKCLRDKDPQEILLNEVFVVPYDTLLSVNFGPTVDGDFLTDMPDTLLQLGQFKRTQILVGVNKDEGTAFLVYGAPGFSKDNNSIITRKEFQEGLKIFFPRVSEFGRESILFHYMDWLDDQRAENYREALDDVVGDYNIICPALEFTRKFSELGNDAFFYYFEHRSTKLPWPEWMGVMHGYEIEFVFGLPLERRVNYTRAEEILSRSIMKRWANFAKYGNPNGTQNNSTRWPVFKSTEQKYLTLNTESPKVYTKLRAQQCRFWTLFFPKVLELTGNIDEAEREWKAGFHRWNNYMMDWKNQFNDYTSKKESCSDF

Cholinesterase [3] = biological target: T1, Cholinesterase (Equus caballus, UniProt P81908); assay: Inhibition of equine serum BChE by Ellman's method; assay type: cell-free
T1 sequence (P81908 whole entry): as above

Acetylcholinesterase = Acetylcholinesterase (Electrophorus electricus, UniProt O42275); assay: Inhibition of electric eel AChE using acetylthiocholine iodide as substrate incubated for 20 mins by Ellman's method
Acetylcholinesterase, sequence (O42275 whole entry): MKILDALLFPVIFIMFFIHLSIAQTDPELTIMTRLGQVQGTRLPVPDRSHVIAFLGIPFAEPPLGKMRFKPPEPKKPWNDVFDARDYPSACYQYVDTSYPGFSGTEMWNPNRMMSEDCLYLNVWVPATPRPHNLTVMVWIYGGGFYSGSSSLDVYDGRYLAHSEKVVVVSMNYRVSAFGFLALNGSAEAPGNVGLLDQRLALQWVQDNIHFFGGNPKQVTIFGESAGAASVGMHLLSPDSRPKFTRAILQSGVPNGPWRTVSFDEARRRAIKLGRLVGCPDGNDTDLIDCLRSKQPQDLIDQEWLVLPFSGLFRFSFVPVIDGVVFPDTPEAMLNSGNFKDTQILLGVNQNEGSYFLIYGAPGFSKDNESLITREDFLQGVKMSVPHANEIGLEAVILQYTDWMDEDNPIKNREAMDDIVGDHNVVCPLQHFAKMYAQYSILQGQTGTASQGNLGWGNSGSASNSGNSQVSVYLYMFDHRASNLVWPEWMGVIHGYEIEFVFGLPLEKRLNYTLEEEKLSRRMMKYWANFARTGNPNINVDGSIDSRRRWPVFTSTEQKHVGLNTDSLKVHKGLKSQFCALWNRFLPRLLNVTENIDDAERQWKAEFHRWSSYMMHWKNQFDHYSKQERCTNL

RAW264.7 = assay: Antiinflammatory activity against mouse RAW264.7 cells assessed as inhibition of LPS-induced nitric oxide production at 20 uM preincubated for 24 hrs followed by LPS stimulation by Griess reagent-based colorimetric assay relative to control; assay type: functional; design: scale not given: the % may be the effect or the level left
[4] = biological target: Cholinesterase (Equus caballus) (UniProt P81908); assay: Mixed type inhibition of equine serum BChE assessed as increase in slope and Y-intercept at increasing concentration by Lineweaver-Burk plot analysis; assay type: cell-free
Cholinesterase [5] = biological target: T1, Cholinesterase; assay: Mixed type inhibition of equine serum BChE assessed as inhibition constant by Lineweaver-Burk plot analysis; assay type: cell-free
BV-2 = assay: Cytotoxicity against mouse BV-2 cells assessed as reduction in cell viability at 10 uM incubated for 24 hrs by CCK-8 assay; assay type: toxicity, cell-based; conditions: bv-2, 24 h
[6] = biological target: Cholinesterase (Equus caballus) (UniProt P81908); assay: Mixed type inhibition of equine serum BChE assessed as Kis by Lineweaver-Burk plot analysis; assay type: cell-free

Acetylcholinesterase (Electrophorus electricus), sequence (O42275 24-633 limits assumed): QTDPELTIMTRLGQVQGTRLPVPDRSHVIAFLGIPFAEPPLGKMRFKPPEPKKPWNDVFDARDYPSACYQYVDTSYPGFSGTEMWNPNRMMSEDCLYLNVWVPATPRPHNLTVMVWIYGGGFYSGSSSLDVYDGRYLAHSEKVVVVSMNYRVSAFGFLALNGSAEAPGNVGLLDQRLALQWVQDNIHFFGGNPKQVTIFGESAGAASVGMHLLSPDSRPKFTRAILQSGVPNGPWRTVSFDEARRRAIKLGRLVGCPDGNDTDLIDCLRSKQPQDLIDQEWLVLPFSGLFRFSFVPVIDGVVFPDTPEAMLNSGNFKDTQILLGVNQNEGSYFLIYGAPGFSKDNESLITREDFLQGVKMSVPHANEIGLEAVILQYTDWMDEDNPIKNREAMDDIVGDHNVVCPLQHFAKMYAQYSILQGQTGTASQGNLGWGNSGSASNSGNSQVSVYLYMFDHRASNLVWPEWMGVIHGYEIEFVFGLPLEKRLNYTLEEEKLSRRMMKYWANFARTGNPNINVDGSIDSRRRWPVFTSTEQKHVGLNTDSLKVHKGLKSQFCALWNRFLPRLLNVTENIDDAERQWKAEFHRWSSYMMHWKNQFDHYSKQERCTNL

COc1cc(OC)c2c(=O)[nH]c(-c3cc(OC)c(OC)c(OC)c3)nc2c1
inhibition [1]: 38.7%
inhibition [2]: 10.9%

COc1cc(OC)c2c(=O)[nH]c(-c3c[nH]c4ccccc34)nc2c1
inhibition [1]: 31.9%
inhibition [2]: 8.91%

O=c1[nH]c(C2CCN(Cc3ccccc3)CC2)nc2ccccc12
inhibition [1]: 63.3%
inhibition [2]: 48.6%

CN1CCN(c2ccc(-c3nc4ccccc4c(=O)[nH]3)cc2)CC1
IC50 (Cholinesterase [3]): > 20 µM
IC50 (Acetylcholinesterase): 30.4 µM
inhibition [1]: 68.1%
inhibition [2]: 24.1%
Activity (RAW264.7): 45.6%

COc1cc(OC)c2c(=O)[nH]c(-c3ccc(N4CCN(C(=O)OC(C)(C)C)CC4)cc3)nc2c1
inhibition [1]: 37.4%
inhibition [2]: inactive

COc1cc(OC)c2c(=O)[nH]c(-c3ccc(N4CCNCC4)cc3)nc2c1
inhibition [1]: 44.2%
inhibition [2]: inactive

COc1cc(-c2nc3ccccc3c(=O)[nH]2)cc(OC)c1OC
inhibition [1]: 47.9%
inhibition [2]: 32.9%

COc1cc(OC)c2c(=O)[nH]c(-c3ccc(-c4ccncc4)cc3)nc2c1
inhibition [1]: 30.9%
inhibition [2]: 1.72%

COc1cc(-c2nc3ccc(NC(=O)CCN4CCCCC4)cc3c(=O)[nH]2)cc(OC)c1OC
inhibition [1]: 26.1%
inhibition [2]: 14.6%

COc1cc(-c2nc3ccc(NC(=O)CN4CCCCC4)cc3c(=O)[nH]2)cc(OC)c1OC
inhibition [1]: 24.6%
inhibition [2]: inactive

COc1cc(-c2nc3ccc(NC(=O)CCN4CCN(C)CC4)cc3c(=O)[nH]2)cc(OC)c1OC
inhibition [1]: 24.7%
inhibition [2]: inactive

O=c1[nH]c(C2CCN(Cc3ccccc3)CC2)nc2ccc(Br)cc12
inhibition [1]: 31.7%
inhibition [2]: 14.6%

COc1cc(OC)c2c(=O)[nH]c(-c3ccc(N4CCN(CCO)CC4)cc3)nc2c1
inhibition [1]: 62.4%
inhibition [2]: 3.32%

COc1cc(-c2nc3ccc(NC(=O)c4ccc(Br)cc4)cc3c(=O)[nH]2)cc(OC)c1OC
inhibition [1]: 23.5%
inhibition [2]: 8.3%

CN1CCN(c2ccc(-c3nc4ccc([N+](=O)[O-])cc4c(=O)[nH]3)cc2)CC1
IC50 (Cholinesterase [3]): > 100 µM
IC50 (Acetylcholinesterase): 5.49 µM
inhibition [1]: 69.4%
inhibition [2]: 63.7%
Activity (RAW264.7): 27.1%

COc1cc(OC)c2c(=O)[nH]c(-c3nc[nH]c3C)nc2c1
IC50 (Cholinesterase [3]): > 20 µM
IC50 (Acetylcholinesterase): 28.1 µM
inhibition [1]: 60.8%
inhibition [2]: 25.9%
Activity (RAW264.7): 61.2%

COc1cc(OC)c2c(=O)[nH]c(-c3cccs3)nc2c1
inhibition [1]: 44.2%
inhibition [2]: 35.3%

COc1cc(OC)c2c(=O)[nH]c(-c3cn(Cc4ccccc4)cn3)nc2c1
IC50 (Cholinesterase [3]): 0.83 µM
inhibition [4]: Active
Ki (Cholinesterase [5]): 0.74 µM
IC50 (Acetylcholinesterase): 7.01 µM
inhibition [1]: 87.9%
inhibition [2]: 95%
Activity (BV-2): Toxic
Activity (RAW264.7): 33.4%
Kis [6]: 8.58 µM

COc1cc(-c2nc3ccc(NCc4ccc(N5CCN(C)CC5)cc4)cc3c(=O)[nH]2)cc(OC)c1OC
inhibition [1]: 23.6%
inhibition [2]: inactive

COc1cc(OC)c2c(=O)[nH]c(C(=O)c3ccc(O)cc3)nc2c1
inhibition [1]: 7.74%
inhibition [2]: inactive

Reference: ChEMBL document CHEMBL5321215, “Discovery of quinazolin-4(3H)-one derivatives as novel AChE inhibitors with anti-inflammatory activities” (Eur J Med Chem, 2023)
